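Results reflect a 48-hour exposure of cells in 96-well plates to compound at five concentrations. GI50 is the concentration that inhibits growth by half. The concentration for full growth arrest is given as TGI.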
Columns and labels:
Test in all cases: growth of human tumour cells (NCI), 48 h
HS 578T breast = tested on: HS 578T breast
TK-10 renal = tested on: TK-10 renal
BT-549 breast = tested on: BT-549 breast
NCI-H460 lung = tested on: NCI-H460 lung
K-562 leukemia = tested on: K-562 leukemia
SK-MEL-28 melanoma = tested on: SK-MEL-28 melanoma
SK-OV-3 ovarian = tested on: SK-OV-3 ovarian
IGROV1 ovarian = tested on: IGROV1 ovarian
A498 renal = tested on: A498 renal
MALME-3M melanoma = tested on: MALME-3M melanoma
KM12 colon = tested on: KM12 colon
SR leukemia = tested on: SR leukemia
UO-31 renal = tested on: UO-31 renal
NCI-H226 lung = tested on: NCI-H226 lung
OVCAR-5 ovarian = tested on: OVCAR-5 ovarian
HL-60(TB) leukemia = tested on: HL-60(TB) leukemia
MOLT-4 leukemia = tested on: MOLT-4 leukemia
OVCAR-4 ovarian = tested on: OVCAR-4 ovarian
DU-145 prostate = tested on: DU-145 prostate
NCI-H522 lung = tested on: NCI-H522 lung
SW-620 colon = tested on: SW-620 colon
SF-295 CNS = tested on: SF-295 CNS
HOP-92 NSCLC = tested on: HOP-92 NSCLC
786-0 renal = tested on: 786-0 renal
RXF 393 renal = tested on: RXF 393 renal
MDA-MB-435 = tested on: MDA-MB-435
HCT-116 colon = tested on: HCT-116 colon
MDA-MB-231 breast = tested on: MDA-MB-231 breast
SK-MEL-5 melanoma = tested on: SK-MEL-5 melanoma
SF-268 CNS = tested on: SF-268 CNS
SNB-75 CNS = tested on: SNB-75 CNS
ACHN renal = tested on: ACHN renal
U251 CNS = tested on: U251 CNS
SN12C renal = tested on: SN12C renal
M14 melanoma = tested on: M14 melanoma
CAKI-1 renal = tested on: CAKI-1 renal
T-47D breast = tested on: T-47D breast
SNB-19 CNS = tested on: SNB-19 CNS
UACC-257 melanoma = tested on: UACC-257 melanoma
CCRF-CEM leukemia = tested on: CCRF-CEM leukemia
NCI/ADR-RES ovarian = tested on: NCI/ADR-RES ovarian
A549 NSCLC = tested on: A549 NSCLC
HCT-15 colon = tested on: HCT-15 colon
LOX IMVI melanoma = tested on: LOX IMVI melanoma
SK-MEL-2 melanoma = tested on: SK-MEL-2 melanoma
HOP-62 NSCLC = tested on: HOP-62 NSCLC
HCC-2998 colon = tested on: HCC-2998 colon
SF-539 CNS = tested on: SF-539 CNS
MCF7 breast = tested on: MCF7 breast
OVCAR-8 ovarian = tested on: OVCAR-8 ovarian
COLO 205 colon = tested on: COLO 205 colon
HT29 colon = tested on: HT29 colon
OVCAR-3 ovarian = tested on: OVCAR-3 ovarian
RPMI-8226 leukemia = tested on: RPMI-8226 leukemia

CCOC(=O)N1CCN(c2nc(Nc3cc(C)[nH]n3)c3ccccc3n2)CC1
GI50 (HS 578T breast): 1.16 µM | TGI (HS 578T breast): 5.42 µM | GI50 (TK-10 renal): 0.909 µM | TGI (TK-10 renal): 35.1 µM | GI50 (BT-549 breast): 3.85 µM | TGI (BT-549 breast): 16.2 µM | GI50 (NCI-H460 lung): 4.42 µM | TGI (NCI-H460 lung): 26.4 µM | GI50 (K-562 leukemia): 2.94 µM | TGI (K-562 leukemia): > 100 µM | GI50 (SK-MEL-28 melanoma): 12.2 µM | TGI (SK-MEL-28 melanoma): 91.3 µM | GI50 (SK-OV-3 ovarian): 2.62 µM | TGI (SK-OV-3 ovarian): 34.3 µM | GI50 (IGROV1 ovarian): 0.638 µM | TGI (IGROV1 ovarian): 35.5 µM | GI50 (A498 renal): 0.423 µM | TGI (A498 renal): 2.78 µM | GI50 (MALME-3M melanoma): 21.9 µM | TGI (MALME-3M melanoma): 62.2 µM | GI50 (KM12 colon): 0.479 µM | TGI (KM12 colon): 23.1 µM | GI50 (SR leukemia): 0.446 µM | TGI (SR leukemia): 20.2 µM | GI50 (UO-31 renal): 0.854 µM | TGI (UO-31 renal): 24.6 µM | GI50 (NCI-H226 lung): 1.58 µM | TGI (NCI-H226 lung): 10.8 µM | GI50 (OVCAR-5 ovarian): 3.25 µM | TGI (OVCAR-5 ovarian): > 100 µM | GI50 (HL-60(TB) leukemia): 12 µM | TGI (HL-60(TB) leukemia): 34.1 µM | GI50 (MOLT-4 leukemia): 15.5 µM | TGI (MOLT-4 leukemia): 42.7 µM | GI50 (OVCAR-4 ovarian): 4.04 µM | TGI (OVCAR-4 ovarian): > 100 µM | GI50 (DU-145 prostate): 3.89 µM | TGI (DU-145 prostate): 40 µM | GI50 (NCI-H522 lung): 2.82 µM | TGI (NCI-H522 lung): 30.7 µM | GI50 (SW-620 colon): 2.1 µM | TGI (SW-620 colon): 45.2 µM | GI50 (SF-295 CNS): 5.98 µM | TGI (SF-295 CNS): > 100 µM | GI50 (HOP-92 NSCLC): 1.92 µM | TGI (HOP-92 NSCLC): 11.9 µM | GI50 (786-0 renal): 1.95 µM | TGI (786-0 renal): 14.2 µM | GI50 (RXF 393 renal): 1.11 µM | TGI (RXF 393 renal): 5.01 µM | GI50 (MDA-MB-435): 0.829 µM | TGI (MDA-MB-435): 62.3 µM | GI50 (HCT-116 colon): 2.13 µM | TGI (HCT-116 colon): 21.3 µM | GI50 (MDA-MB-231 breast): 4.97 µM | TGI (MDA-MB-231 breast): 81.6 µM | GI50 (SK-MEL-5 melanoma): 7.94 µM | TGI (SK-MEL-5 melanoma): 21.4 µM | GI50 (SF-268 CNS): 3.54 µM | TGI (SF-268 CNS): 39 µM | GI50 (SNB-75 CNS): 0.727 µM | TGI (SNB-75 CNS): 5.66 µM | GI50 (ACHN renal): 0.707 µM | TGI (ACHN renal): > 100 µM | GI50 (U251 CNS): 2.13 µM | TGI (U251 CNS): 23.5 µM | GI50 (SN12C renal): 2.24 µM | TGI (SN12C renal): 52 µM | GI50 (M14 melanoma): 9.16 µM | TGI (M14 melanoma): 28.9 µM | GI50 (CAKI-1 renal): 0.97 µM | TGI (CAKI-1 renal): 17.8 µM | GI50 (T-47D breast): 4.83 µM | TGI (T-47D breast): 70.7 µM | GI50 (SNB-19 CNS): 10.3 µM | TGI (SNB-19 CNS): > 100 µM | GI50 (UACC-257 melanoma): 16.3 µM | TGI (UACC-257 melanoma): 52.6 µM | GI50 (CCRF-CEM leukemia): 10.1 µM | TGI (CCRF-CEM leukemia): 56.2 µM | GI50 (NCI/ADR-RES ovarian): 4.25 µM | TGI (NCI/ADR-RES ovarian): 37 µM | GI50 (A549 NSCLC): 7.6 µM | TGI (A549 NSCLC): 28.8 µM | GI50 (HCT-15 colon): 0.992 µM | TGI (HCT-15 colon): > 100 µM | GI50 (LOX IMVI melanoma): 1.86 µM | TGI (LOX IMVI melanoma): 10.1 µM | GI50 (SK-MEL-2 melanoma): 0.737 µM | TGI (SK-MEL-2 melanoma): 55.5 µM | GI50 (HOP-62 NSCLC): 2.81 µM | TGI (HOP-62 NSCLC): > 100 µM | GI50 (HCC-2998 colon): 11.7 µM | TGI (HCC-2998 colon): 48.7 µM | GI50 (SF-539 CNS): 1.92 µM | TGI (SF-539 CNS): 9.7 µM | GI50 (MCF7 breast): 4.61 µM | TGI (MCF7 breast): > 100 µM | GI50 (OVCAR-8 ovarian): 8.63 µM | TGI (OVCAR-8 ovarian): 63.2 µM | GI50 (COLO 205 colon): 1.83 µM | TGI (COLO 205 colon): 5.41 µM | GI50 (HT29 colon): 2.49 µM | TGI (HT29 colon): 21.2 µM | GI50 (OVCAR-3 ovarian): 7.69 µM | TGI (OVCAR-3 ovarian): 37.3 µM | GI50 (RPMI-8226 leukemia): 3.4 µM | TGI (RPMI-8226 leukemia): 13.6 µM

Source: PubChem BioAssay (NCI)
